Several values for one entry are separate records, joined by “and”; a condition that tells them apart may be missing. Identical values can stand only once. Entries after “also recorded” stand apart in the source; their conditions may differ.
How the values were obtained:
[1] = Redox potentials of iron complexes (no method given); type: physicochemical
[2] = Effective magnetic moment in solution from magnetic susceptibility (NMR); type: physicochemical; settings: aqueous solution
Procedure: The effective magnetic moment (μeff) was calculated by using a previously known method. 5 mM Co^II complex and 5% t-butanol by volume was placed in a NMR insert while the outer NMR tube contained 5% by volume t-butanol in D2O. The μeff was calculated at 298 K (T) and monitored over a period of 72 hours using the following approach.
The mass susceptibility of solute (χg) was calculated by obtaining the observed frequency shift of the reference (Δf) in Hz, the spectrometer frequency (f) in Hz, the mass of the substance per cm^3 of solution (m), and the mass susceptibility of solvent D2O (χ0=−0.6466×10^−6 cm^3/g). The last term is neglected due to the minimal contribution to mass susceptibility of solute. The molar susceptibility (χm) is the product of χg multiplied by the molecular weight of the Co^II complex.
The effective magnetic moment was calculated by using a previously known method. In a typical experiment, oxygen-free solution of 8-20 mM [Co(TPT)]^2+ in deuterium oxide, pD 7.0, containing 5% tert-butanol by volume was placed in an NMR tube, while a reference solution of 5% tert-butanol (v/v) in deuterium oxide, pD 7.0, was placed into NMR tube insert. All solutions of [Co(TPT)]^2+ were purged with argon and kept in the absence of air. The effective magnetic moment (μeff) was calculated at 298 K (T) using the following equations 7-8. In these equations the mass susceptibility of solute (χg) was calculated by obtaining the observed frequency shift of the reference (Δf) in Hz, the spectrometer frequency (f) in Hz, the mass of the substance per cm^3 of the solution (m), and the mass susceptibility of deuterium oxide (χ0=−0.6466×10^−6 cm^3/g). The last term in eq. SI is neglected due to the minimal contribution to mass susceptibility of solute. The molar susceptibility (χm) is the product of χg multiplied by the molecular weight of the [Co(TPT)]Cl2 complex. Reported value of the effective magnetic moment was obtained by averaging of three independent experiments. χg=(−3Δf)/(4πfm)+χ0+[χ0(d0−ds)]/m eq. 7 μeff=2.84(χmT)^1/2 eq. 8

[3] = Exchange rate constants (omega plot)
Procedure: Exchange rate constants were calculated following a previously reported procedure. Measurements of on-resonance (Mz) and off-resonance (Mo) were acquired at different presaturation pulse powers between 350-1000 Hz (8-24 μT) applied for 4 seconds at 37° C. The exchange rate constant (kex) is calculated from the x-intercept from the plot of Mz/(Mo−Mz) against 1/ω1^2 (ω1 in rad/s). The rate constant, kex, is converted into units of s^−1. Samples contained 10 mM Co^II complex, 20 mM HEPES pH 7.4, and 100 mM NaCl.
The exchange rate constants were calculated by using a previously reported procedure. The magnetization of the on-resonance (Mz) and off-resonance (Mo) were acquired at different pre-saturation pulse powers between 350-1090 Hz applied for 4 seconds. To calculate the exchange rate constant (kb), the x-intercept (−1/kb^2) was obtained from the plot of Mz/(Mo−Mz) against 1/ω1^2 (ω1 in rad/s). Samples contained 16 mM [Co(TPT)]Cl2, 200 mM NaCl, and 40 mM MES or HEPES at pH 6.4-7.5. Measurements were carried out at 37° C.

[4] = Cyclic voltammetry; type: physicochemical; settings: versus NHE, in water, 1 M KCl
Procedure: Cyclic voltammograms were obtained using a Princeton Applied Research Model 263A Potentiostat/Galvanostat and PowerSuite software program. CHI 104 Glassy Carbon Disk working electrode from CH Instruments, Inc. (Austin, Tex.) was used. Cyclic Voltammetry. […] (FIG. 6). The external ferrocyanide standard with Eo (Fe(III)/Fe(II))=303±10 mV vs. NHE contained 1.0 mM K4Fe(CN)6 and 1.00 M KCl under argon. The redox potential of the complex calculated based on a NHE reference using eq. 6: E^o(vs. NHE)=E^o(vs. Ag/AgCl)+167 mV, eq. 6 Determination of Magnetic Moment.

[5] = Kinetics of Co(II) oxidation and Co(III) reduction by UV-vis; type: physicochemical
Excerpt: Materials and methods. Instrumentation. Varian Inova 400 MHz and Inova 500 MHz NMR spectrometers were used to collect ^1H NMR spectra. ^13C NMR spectra were acquired using a Varian Mercury 300 MHz NMR spectrometer operating at 75 MHz. The measurements of magnetic susceptibility and CEST data were acquired on Varian Inova 500 MHz NMR spectrometer. Temperature of samples during ^1H NMR and CEST experiments was controlled with FTS Systems TC-84 Kinetics Air Jet Temperature Controller. A Thermo Scientific Orion 9826BN NMR micro pH electrode connected to a SympHony SB20 pH meter and the Orion 8115BNUWP Ross-ultra semi micro pH electrode connected to a Titrino 702 pH meter were used for pH measurements. ThermoFinnigan LCQ Advantage IonTrap LC/MS equipped with a Surveyor HPLC system was used to collect mass spectral data. Absorbance spectra of [Co(TPT)]^2+ and [Co(TPT)]^3+, together with the kinetic experiments for the reduction of Co(III) with L-ascorbic acid or sodium dithionite, and for the oxidation of Co(II) with oxygen or sodium peroxydisulfate were measured with a Beckman-Coulter DU 800 UV-vis Spectrophotometer equipped with a Peltier Temperature Controller. Kinetic experiments for the oxidation of Co(II) complex were performed after equilibration of the solutions with a mixture containing 5%, 10%, and 20% of oxygen in nitrogen followed by addition of [Co(TPT)]^2+ in the minimal volume of solvent. All experiments for the reduction of […] were performed under an inert atmosphere of argon. […]

[6] = Oxidation in air / reduction with dithionite followed by 1H NMR; type: physicochemical

redox potential [1]	effective magnetic moment [2]	reduction potential [4]	Structure (SMILES)	rate constant for proton exchange ([3]; pH 6.4, 37° C.)	rate constant for proton exchange ([3]; pH 6.9, 37° C.)	rate constant for proton exchange ([3]; pH 7.5, 37° C.)	second-order rate constant for reduction by dithionite ([5]; 200 mM NaCl, 40 mM HEPES, pH 7.0, 37° C.)	second-order rate constant for oxidation by oxygen ([5]; 200 mM NaCl, 40.0 mM HEPES, pH 7.1, 25° C.)	rate constant for oxidation of the Co(II) complex ([5]; ambient pressures of oxygen)	rate constant for reduction of Co(III) complex ([5]; excess dithionate)	rate constant for oxidation, extrapolated ([5]; hypoxic conditions, 10 mm Hg, 17 μM O2)	rate constant for oxidation, extrapolated ([5]; oxygen 100 mm Hg (0.17 mM O2), arterial blood)	rate constant for oxidation of the Co(II) complex ([5]; partial pressures of oxygen of 5%, in 1/s)	stability towards oxidation in air (in words) [6]
195 mV			O=C([O-])CN1CCN(CC(=O)[O-])CCN(CC(=O)[O-])CC1.[Fe+3] [Fe(NOTA)]											
	5.7±0.2 BM	−107 mV and −107±11 mV	[Co+2].c1cc(CN2CCN(Cc3cc[nH]n3)CCN(Cc3cc[nH]n3)CC2)n[nH]1 [[Co(TPT)]^2+]	6,200 s^−1	9,200 s^−1	12,400 s^−1	0.24 M⁻¹ s⁻¹	0.43 M⁻¹ s⁻¹	5e-06 s⁻¹	4e-05 s⁻¹	7.3e-06 s⁻¹	7.3e-05 s⁻¹	2×10^−6	readily oxidize; also recorded: oxidizes in air to the Co(III) form
			[Fe+2].c1cc(CN2CCN(Cc3cc[nH]n3)CCN(Cc3cc[nH]n3)CC2)n[nH]1 [[Fe(TPT)]^2+]											readily oxidize

Source: patent US10960088B2, “Macrocycles, cobalt and iron complexes of same, and methods of making and using same” (The Research Foundation for The State University of New York, priority 2013, dated 2021)
